Like-named read-outs stand apart in the source and are kept apart here.
Key:
[1] = tested on: A. baumannii clinical isolates; assay: microbe, parasite or virus in culture; assay type: cell-based; settings: Acinetobacter baumannii
Procedure, shortened: (§1)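 Broth microdilution MICs following CLSI methods, interpreted with CLSI breakpoints where available. Sulbactam tested as twofold dilutions combined with fixed 4 µg/mL durlobactam.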

[2] = tested on: A. nosocomialis clinical isolate; assay: microbe, parasite or virus in culture; assay type: cell-based; settings: Acinetobacter nosocomialis, isolate ARC7023 (IHMA 2118812), France, BSI, 2019, read-out: MIC
Procedure, shortened: as §1

[3] = tested on: A. pittii clinical isolates; assay: microbe, parasite or virus in culture; assay type: cell-based; settings: Acinetobacter pittii
Procedure, shortened: as §1

[4] = tested on: ABC clinical isolates with SUL-DUR MIC > 4 µg/mL; assay: microbe, parasite or virus in culture; assay type: cell-based, Acinetobacter baumannii-calcoaceticus complex
Procedure, shortened: as §1

[5] = tested on: A. baumannii wild-type PBP3; assay: Acylation rate constant (kinact/Ki), fluorescence anisotropy competition with BOCILLIN; settings: Wildtype PBP3

SMILES: CC1(C)[C@H](C(=O)O)N2C(=O)C[C@H]2S1(=O)=O [sulbactam]
- MIC ([1]; isolate ARC6644 (IHMA 1420327), Mexico, UTI, 2016, read-out: MIC): 64 µg/mL
- MIC ([1]; isolate ARC6645 (IHMA 1435703), France, UTI, 2016, read-out: MIC): > 64 µg/mL
- MIC ([1]; isolate ARC6646 (IHMA 1484127), United States, RTI, 2016, read-out: MIC): > 64 µg/mL
- MIC ([1]; isolate ARC6647 (IHMA 1386786), Argentina, RTI, 2016, read-out: MIC): > 64 µg/mL
- MIC ([1]; isolate ARC6648 (IHMA 1407634), Spain, RTI, 2016, read-out: MIC): 64 µg/mL
- MIC ([1]; isolate ARC6650 (IHMA 1457337), Argentina, RTI, 2016, read-out: MIC): 64 µg/mL
- MIC ([1]; isolate ARC6652 (IHMA 1465642), Belgium, RTI, 2016, read-out: MIC): > 64 µg/mL
- MIC ([1]; isolate ARC6653 (IHMA 1308777), Vietnam, RTI, 2016, read-out: MIC): > 64 µg/mL
- MIC ([1]; isolate ARC6799 (IHMA 1562935), Spain, UTI, 2017, read-out: MIC): > 64 µg/mL
- MIC ([1]; isolate ARC6800 (IHMA 1557526), Turkey, RTI, 2017, read-out: MIC): 64 µg/mL
- MIC ([1]; isolate ARC6801 (IHMA 1662094), Thailand, RTI, 2017, read-out: MIC): 64 µg/mL
- MIC ([1]; isolate ARC6802 (IHMA 1557073), Spain, UTI, 2017, read-out: MIC): > 64 µg/mL
- MIC ([1]; isolate ARC6803 (IHMA 1589408), Belgium, UTI, 2017, read-out: MIC): > 64 µg/mL
- MIC ([1]; isolate ARC6805 (IHMA 1558650), United States, RTI, 2017, read-out: MIC): 64 µg/mL
- MIC ([1]; isolate ARC6808 (IHMA 1557168), Spain, RTI, 2017, read-out: MIC): 16 µg/mL
- MIC ([1]; isolate ARC6809 (IHMA 1699528), Guatemala, RTI, 2017, read-out: MIC): > 64 µg/mL
- MIC ([1]; isolate ARC6810 (IHMA 1699548), Guatemala, RTI, 2017, read-out: MIC): > 64 µg/mL
- MIC ([1]; isolate ARC6812 (IHMA 1699530), Guatemala, RTI, 2017, read-out: MIC): > 64 µg/mL
- MIC ([1]; isolate ARC6813 (IHMA 1699543), Guatemala, UTI, 2017, read-out: MIC): > 64 µg/mL
- MIC ([1]; isolate ARC6814 (IHMA 1699512), Guatemala, RTI, 2017, read-out: MIC): > 64 µg/mL
- MIC ([1]; isolate ARC6815 (IHMA 1699513), Guatemala, RTI, 2017, read-out: MIC): > 64 µg/mL
- MIC ([1]; isolate ARC6816 (IHMA 1699521), Guatemala, RTI, 2017, read-out: MIC): > 64 µg/mL
- MIC ([1]; isolate ARC6817 (IHMA 1699523), Guatemala, RTI, 2017, read-out: MIC): > 64 µg/mL
- MIC ([1]; isolate ARC6818 (IHMA 1683261), Thailand, RTI, 2017, read-out: MIC): 64 µg/mL
- MIC ([1]; isolate ARC6819 (IHMA 1683267), Thailand, RTI, 2017, read-out: MIC): > 64 µg/mL
- MIC ([1]; isolate ARC6820 (IHMA 1647876), Argentina, RTI, 2017, read-out: MIC): > 64 µg/mL
- MIC ([1]; isolate ARC6821 (IHMA 1699517), Guatemala, RTI, 2017, read-out: MIC): > 64 µg/mL
- MIC ([1]; isolate ARC6822 (IHMA 1637626), Guatemala, RTI, 2017, read-out: MIC): > 64 µg/mL
- MIC ([1]; isolate ARC6823 (IHMA 1620872), Greece, SSSI, 2017, read-out: MIC): 32 µg/mL
- MIC ([1]; isolate ARC6824 (IHMA 1625487), Argentina, BSI, 2017, read-out: MIC): 64 µg/mL
- MIC ([1]; isolate ARC6937 (IHMA 1562926), Spain, UTI, 2017, read-out: MIC): > 64 µg/mL
- MIC ([1]; isolate ARC6950 (IHMA 1820064), Israel, RTI, 2018, read-out: MIC): 64 µg/mL
- MIC ([1]; isolate ARC6953 (IHMA 1909827), Turkey, IAI, 2018, read-out: MIC): 64 µg/mL
- MIC ([1]; isolate ARC6954 (IHMA 1838192), Guatemala, SSSI, 2018, read-out: MIC): > 64 µg/mL
- MIC ([1]; isolate ARC6955 (IHMA 1825425), United States, RTI, 2018, read-out: MIC): 16 µg/mL
- MIC ([1]; isolate ARC7008 (IHMA 2009813), Thailand, BSI, 2019, read-out: MIC): > 64 µg/mL
- MIC ([1]; isolate ARC7009 (IHMA 2043611), United States, UTI, 2019, read-out: MIC): > 64 µg/mL
- MIC ([1]; isolate ARC7010 (IHMA 2043398), United States, RTI, 2019, read-out: MIC): > 64 µg/mL
- MIC ([1]; isolate ARC7011 (IHMA 2104553), Germany, RTI, 2019, read-out: MIC): > 64 µg/mL
- MIC ([1]; isolate ARC7012 (IHMA 2010001), Thailand, RTI, 2019, read-out: MIC): > 64 µg/mL
- MIC ([1]; isolate ARC7013 (IHMA 1962831), Argentina, RTI, 2019, read-out: MIC): > 64 µg/mL
- MIC ([1]; isolate ARC7014 (IHMA 2045328), Guatemala, IAI, 2019, read-out: MIC): 64 µg/mL
- MIC ([1]; isolate ARC7015 (IHMA 2045327), Guatemala, UTI, 2019, read-out: MIC): > 64 µg/mL
- MIC ([1]; isolate ARC7016 (IHMA 2148441), Brazil, BSI, 2019, read-out: MIC): 64 µg/mL
- MIC ([1]; isolate ARC7017 (IHMA 2148446), Brazil, BSI, 2019, read-out: MIC): 64 µg/mL
- MIC ([1]; isolate ARC7018 (IHMA 2045454), Guatemala, IAI, 2019, read-out: MIC): > 64 µg/mL
- MIC ([1]; isolate ARC7019 (IHMA 2114463), Thailand, RTI, 2019, read-out: MIC): 32 µg/mL
- MIC ([1]; isolate ARC7020 (IHMA 2045326), Guatemala, RTI, 2019, read-out: MIC): 32 µg/mL
- MIC ([1]; isolate ARC7021 (IHMA 1966347), Guatemala, RTI, 2019, read-out: MIC): > 64 µg/mL
- MIC ([1]; isolate ARC7022 (IHMA 2045319), Guatemala, IAI, 2019, read-out: MIC): 32 µg/mL
- MIC ([1]; isolate ARC7024 (IHMA 2059448), Turkey, RTI, 2019, read-out: MIC): 64 µg/mL
- MIC ([1]; isolate ARC7025 (IHMA 2002121), Spain, RTI, 2019, read-out: MIC): 32 µg/mL
- MIC ([1]; isolate ARC7026 (IHMA 2104494), Guatemala, BSI, 2019, read-out: MIC): 32 µg/mL
- MIC ([1]; isolate ARC7082 (IHMA 2160640), Belgium, BSI, 2020, read-out: MIC): > 64 µg/mL
- MIC ([1]; isolate ARC7083 (IHMA 2163687), United States, RTI, 2020, read-out: MIC): 64 µg/mL
- MIC ([1]; isolate ARC7084 (IHMA 2189596), Germany, RTI, 2020, read-out: MIC): > 64 µg/mL
- MIC ([1]; isolate ARC7085 (IHMA 2205747), Guatemala, IAI, 2020, read-out: MIC): > 64 µg/mL
- MIC ([1]; isolate ARC7086 (IHMA 2207563), Israel, RTI, 2020, read-out: MIC): 32 µg/mL
- MIC ([1]; isolate ARC7088 (IHMA 2215554), Turkey, BSI, 2020, read-out: MIC): > 64 µg/mL
- MIC ([1]; isolate ARC7089 (IHMA 2240345), Argentina, BSI, 2020, read-out: MIC): > 64 µg/mL
- MIC ([1]; isolate ARC7090 (IHMA 2244410), Poland, RTI, 2020, read-out: MIC): > 64 µg/mL
- MIC ([1]; isolate ARC7091 (IHMA 2244564), Australia, RTI, 2020, read-out: MIC): > 64 µg/mL
- MIC ([1]; isolate ARC7092 (IHMA 2258772), United States, BSI, 2020, read-out: MIC): > 64 µg/mL
- MIC ([1]; isolate ARC7093 (IHMA 2258783), United States, RTI, 2020, read-out: MIC): 64 µg/mL
- MIC ([1]; isolate ARC7094 (IHMA 2296423), Turkey, RTI, 2020, read-out: MIC): > 64 µg/mL
- MIC ([1]; isolate ARC7095 (IHMA 2320843), Turkey, BSI, 2020, read-out: MIC): 64 µg/mL
- MIC ([1]; isolate ARC7156 (IHMA 2455450), Greece, RTI, 2021, read-out: MIC): > 64 µg/mL
- MIC ([1]; isolate ARC7158 (IHMA 2523738), Italy, BSI, 2021, read-out: MIC): > 64 µg/mL
- MIC ([1]; isolate ARC7159 (IHMA 2456229), Malaysia, RTI, 2021, read-out: MIC): > 64 µg/mL
- MIC ([1]; isolate ARC7160 (IHMA 2458626), Thailand, RTI, 2021, read-out: MIC): 64 µg/mL
- MIC ([1]; isolate ARC7161 (IHMA 2429252), Ukraine, RTI, 2021, read-out: MIC): 8 µg/mL
- MIC ([1]; isolate ARC7162 (IHMA 2411847), United States, BSI, 2021, read-out: MIC): > 64 µg/mL
- MIC ([1]; isolate ARC7163 (IHMA 2477704), United States, BSI, 2021, read-out: MIC): > 64 µg/mL
- MIC [2]: 32 µg/mL
- MIC ([3]; isolate ARC6949 (IHMA 1898982), Romania, RTI, 2018, read-out: MIC): 64 µg/mL
- MIC ([3]; isolate ARC6951 (IHMA 1776233), Philippines, RTI, 2018, read-out: MIC): > 64 µg/mL
- MIC ([3]; isolate ARC6952 (IHMA 1899008), Romania, RTI, 2018, read-out: MIC): > 64 µg/mL
- MIC ([3]; isolate ARC7087 (IHMA 2212062), Colombia, BSI, 2020, read-out: MIC): 64 µg/mL
- %NS (% non-susceptibility) ([4]; 64 non-clonal ABC isolates, 2023 CLSI breakpoints plus FDA breakpoint of 4 µg/mL for SUL-DUR): 100%
- MIC50 ([4]; Acinetobacter): > 64 µg/mL
- MIC90 ([4]; Acinetobacter): > 64 µg/mL
- MIC ([4]; Acinetobacter, read-out: MIC Max): > 64 µg/mL
- MIC ([4]; Acinetobacter, read-out: MIC Min): 8 µg/mL
- % WT [5]: 100%
- k inact/K i ([5]; average ± SD): 15 ± 3 ([10]) M^-1s^-1

— paper PMC10648852, “Molecular drivers of resistance to sulbactam-durlobactam in contemporary clinical isolates of Acinetobacter baumannii” (Antimicrobial Agents and Chemotherapy, 2023)
